Laboratory results published in ChEMBL document CHEMBL1201862, “PubChem BioAssay data set” (2004).
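Results reflect a 48-hour exposure of cells in 96-well plates to compound at five concentrations. GI50 marks 50% less growth.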 Calls of active or inactive are those of the source. Rule as the data show it: active = GI50 up to about 1.1 µM and inactive = higher.

Columns and labels:
Test in all cases: DTP human tumour cell line panel, 48 h
SNB-19 = test system: SNB-19
SNB-75 = test system: SNB-75
U-251 = test system: U-251
NCI-H23 = test system: NCI-H23
KM12 = test system: KM12
UACC-257 = test system: UACC-257
K562 = test system: K562
OVCAR-3 = test system: OVCAR-3
HT-29 = test system: HT-29
SK-MEL-28 = test system: SK-MEL-28
UO-31 = test system: UO-31
EKVX = test system: EKVX
COLO 205 = test system: COLO 205
LOX IMVI = test system: LOX IMVI
SF-268 = test system: SF-268
OVCAR-8 = test system: OVCAR-8
IGROV-1 = test system: IGROV-1
OVCAR-5 = test system: OVCAR-5
MOLT-4 = test system: MOLT-4
UACC-62 = test system: UACC-62

Measured: GI50

C=CCn1c(=O)ccn(COCCO)c1=O
inactive: SNB-19 25.8 µM | SNB-75 > 100 µM | U-251 > 100 µM | NCI-H23 > 100 µM | KM12 > 100 µM | UACC-257 > 100 µM | K562 > 100 µM | OVCAR-3 > 100 µM | HT-29 > 100 µM | SK-MEL-28 > 100 µM | UO-31 > 100 µM | EKVX > 100 µM | COLO 205 > 100 µM | LOX IMVI > 100 µM | SF-268 > 100 µM | OVCAR-8 > 100 µM | IGROV-1 > 100 µM | OVCAR-5 > 100 µM | MOLT-4 > 100 µM

CN(O)C(=O)CCCC(=O)NCC(C)(C)CNC(=O)CCCC(=O)N(C)O
inactive: SNB-19 > 100 µM | UACC-62 > 100 µM | SNB-75 > 100 µM | U-251 > 100 µM | NCI-H23 > 100 µM | KM12 > 100 µM | UACC-257 > 100 µM | K562 > 100 µM | OVCAR-3 > 100 µM | HT-29 > 100 µM | UO-31 > 100 µM | EKVX > 100 µM | COLO 205 > 100 µM | LOX IMVI > 100 µM | SF-268 > 100 µM | OVCAR-8 > 100 µM | IGROV-1 > 100 µM | OVCAR-5 > 100 µM | MOLT-4 > 100 µM

CSCCC(N)P(C)(=O)O (stereo unspecified)
inactive: SNB-19 > 100 µM | UACC-62 > 100 µM | SNB-75 > 100 µM | U-251 > 100 µM | NCI-H23 > 100 µM | KM12 > 100 µM | UACC-257 > 100 µM | K562 > 100 µM | OVCAR-3 > 100 µM | HT-29 > 100 µM | SK-MEL-28 > 100 µM | UO-31 > 100 µM | EKVX > 100 µM | COLO 205 > 100 µM | LOX IMVI > 100 µM | SF-268 > 100 µM | OVCAR-8 > 100 µM | IGROV-1 > 100 µM | OVCAR-5 > 100 µM | MOLT-4 > 100 µM

c1cc2nnc1SCCCSc1ccc(nn1)SCCCS2
inactive: SNB-19 33.1 µM | UACC-62 > 25.8 µM | SNB-75 25.1 µM | U-251 17.3 µM | NCI-H23 34.8 µM | KM12 > 35.6 µM | UACC-257 > 39.9 µM | K562 > 27.9 µM | OVCAR-3 > 43.2 µM | HT-29 > 30.2 µM | SK-MEL-28 > 46.5 µM | UO-31 > 100 µM | EKVX > 100 µM | COLO 205 > 47 µM | LOX IMVI > 21.9 µM | SF-268 22.2 µM | OVCAR-8 > 39.6 µM | IGROV-1 > 36.7 µM | OVCAR-5 31.3 µM | MOLT-4 > 20.8 µM

c1cc(CN2CCNCCNCCNCC2)cc(CN2CCNCCNCCNCC2)c1
inactive: SNB-19 > 100 µM | UACC-62 > 100 µM | SNB-75 > 100 µM | U-251 > 100 µM | NCI-H23 > 100 µM | KM12 > 100 µM | UACC-257 > 100 µM | K562 > 100 µM | OVCAR-3 > 100 µM | HT-29 > 100 µM | SK-MEL-28 > 100 µM | UO-31 > 100 µM | EKVX > 100 µM | COLO 205 > 100 µM | LOX IMVI > 100 µM | SF-268 > 100 µM | OVCAR-8 > 100 µM | IGROV-1 > 100 µM | OVCAR-5 > 100 µM | MOLT-4 > 100 µM

CC(Oc1ccccc1Cl)C(=O)NN1C(=O)CSC1c1ccc(Cl)cc1 (stereo unspecified)
inactive: SNB-19 21.7 µM | UACC-62 17.8 µM | SNB-75 22.9 µM | U-251 17.8 µM | NCI-H23 19.3 µM | KM12 18.1 µM | UACC-257 23.6 µM | K562 6.73 µM | OVCAR-3 23.3 µM | HT-29 19.8 µM | SK-MEL-28 23 µM | UO-31 35.1 µM | EKVX 26.8 µM | COLO 205 19.6 µM | LOX IMVI 19.6 µM | SF-268 20.6 µM | OVCAR-8 23.4 µM | IGROV-1 20.7 µM | OVCAR-5 22.8 µM

O=CN1CCC23CC(O)CCC2C1Cc1cc(Oc2nnnn2-c2ccccc2)cc(O)c13 (stereo unspecified)
inactive: SNB-19 > 100 µM | UACC-62 65.2 µM | SNB-75 > 100 µM | U-251 > 100 µM | NCI-H23 > 100 µM | KM12 57.9 µM | UACC-257 > 100 µM | K562 > 100 µM | OVCAR-3 > 100 µM | HT-29 59.4 µM | SK-MEL-28 > 100 µM | UO-31 85.3 µM | EKVX > 100 µM | COLO 205 32.9 µM | LOX IMVI 57.3 µM | SF-268 > 100 µM | OVCAR-8 > 100 µM | IGROV-1 37.8 µM | OVCAR-5 > 100 µM | MOLT-4 48.9 µM

COC(=O)C(=O)C(C(C)=O)C(=O)C(=O)Nc1ccc(C)cc1C (stereo unspecified)
inactive: SNB-19 > 100 µM | UACC-62 > 100 µM | SNB-75 > 100 µM | U-251 > 100 µM | NCI-H23 > 100 µM | KM12 > 100 µM | UACC-257 > 100 µM | K562 > 100 µM | HT-29 > 100 µM | SK-MEL-28 > 100 µM | UO-31 > 100 µM | EKVX > 100 µM | COLO 205 > 100 µM | LOX IMVI > 100 µM | SF-268 > 100 µM | OVCAR-8 > 100 µM | IGROV-1 > 100 µM | OVCAR-5 > 100 µM | MOLT-4 > 100 µM

CC(C)(C)[Si](OC1CCOC1=O)(c1ccccc1)c1ccccc1 (stereo unspecified)
inactive: SNB-19 29.6 µM | UACC-62 13.9 µM | SNB-75 23.6 µM | U-251 14.7 µM | NCI-H23 19.4 µM | KM12 > 10 µM | UACC-257 17.1 µM | OVCAR-3 13.1 µM | HT-29 15.3 µM | SK-MEL-28 22.3 µM | UO-31 27.1 µM | EKVX 31.3 µM | COLO 205 > 10 µM | LOX IMVI 15.5 µM | SF-268 23 µM | OVCAR-8 23.4 µM | IGROV-1 15.7 µM | OVCAR-5 26.7 µM | MOLT-4 17.5 µM

CCCCCCCCCCCCCCCCCC(=O)OCC(COC(=O)CCCN)OC(=O)CCCN (stereo unspecified)
inactive: SNB-19 21.8 µM | UACC-62 18.2 µM | SNB-75 > 100 µM | U-251 20.6 µM | NCI-H23 16.4 µM | KM12 15.5 µM | UACC-257 19.6 µM | K562 35.6 µM | OVCAR-3 19.3 µM | HT-29 16.1 µM | SK-MEL-28 19.9 µM | UO-31 1.96 µM | EKVX 20.8 µM | COLO 205 16.5 µM | LOX IMVI 18.5 µM | SF-268 23.1 µM | OVCAR-8 18.5 µM | IGROV-1 2.91 µM | OVCAR-5 15.9 µM | MOLT-4 24.8 µM

NC(=S)N/N=C1\CC(c2ccccc2)Nc2ccccc21 (stereo unspecified)
inactive: SNB-19 40.8 µM | UACC-62 34.3 µM | SNB-75 16.6 µM | U-251 39.6 µM | NCI-H23 30.2 µM | K562 12.2 µM | OVCAR-3 40.3 µM | HT-29 17.2 µM | SK-MEL-28 40.1 µM | UO-31 24.5 µM | EKVX 55.7 µM | COLO 205 28.1 µM | LOX IMVI 34.2 µM | SF-268 40.1 µM | OVCAR-8 41.6 µM | IGROV-1 42.7 µM | MOLT-4 22.6 µM

Cc1cc(O)c(C(c2cccnc2)c2c(O)cc(C)[nH]c2=O)c(=O)[nH]1
inactive: SNB-19 > 100 µM | UACC-62 > 100 µM | U-251 > 100 µM | NCI-H23 > 100 µM | KM12 > 100 µM | UACC-257 > 100 µM | K562 > 100 µM | OVCAR-3 > 100 µM | HT-29 > 100 µM | SK-MEL-28 > 100 µM | UO-31 > 100 µM | EKVX > 100 µM | COLO 205 > 100 µM | LOX IMVI > 100 µM | SF-268 > 100 µM | OVCAR-8 > 100 µM | IGROV-1 > 100 µM | OVCAR-5 > 100 µM | MOLT-4 > 100 µM

CCOP(=Nc1ccc(N(C)C)cc1)(OCC)OCC
inactive: SNB-19 > 100 µM | UACC-62 > 100 µM | SNB-75 > 100 µM | U-251 > 100 µM | NCI-H23 > 100 µM | KM12 > 100 µM | UACC-257 > 100 µM | K562 > 100 µM | OVCAR-3 > 100 µM | SK-MEL-28 > 100 µM | UO-31 > 100 µM | EKVX > 100 µM | COLO 205 > 100 µM | SF-268 > 100 µM | OVCAR-8 > 100 µM | IGROV-1 > 100 µM | OVCAR-5 > 100 µM | MOLT-4 > 100 µM

COc1c(Cl)cc(Cl)cc1S(=O)O
inactive: SNB-19 > 100 µM | UACC-62 > 100 µM | SNB-75 > 100 µM | U-251 > 100 µM | NCI-H23 > 100 µM | KM12 > 100 µM | UACC-257 > 100 µM | K562 > 100 µM | OVCAR-3 > 100 µM | HT-29 > 100 µM | SK-MEL-28 > 100 µM | UO-31 > 100 µM | EKVX > 100 µM | LOX IMVI > 100 µM | SF-268 > 100 µM | OVCAR-5 > 100 µM | MOLT-4 > 100 µM

Cc1cccc(/C=C2\CCCc3ccccc3C2=O)c1
inactive: SNB-19 24.4 µM | UACC-62 14 µM | SNB-75 42.2 µM | U-251 18.6 µM | NCI-H23 25.4 µM | KM12 13.4 µM | UACC-257 21.6 µM | K562 18 µM | OVCAR-3 26.3 µM | HT-29 18.5 µM | SK-MEL-28 23.8 µM | UO-31 26.8 µM | EKVX 20.6 µM | COLO 205 18.9 µM | LOX IMVI 19.3 µM | SF-268 15.2 µM | OVCAR-8 19.1 µM | IGROV-1 21.6 µM | OVCAR-5 15 µM | MOLT-4 16.9 µM
